In article PMC10891803, “Seleno-Warfare against Cancer: Decoding Antitumor Activity of Novel Acylselenoureas and Se-Acylisoselenoureas” (Pharmaceutics, 2024):

What was measured:
DU-145 = experiment: MTT cell viability assay, DU-145; format: cell-based, human; conditions: 48 h; for percentage of cell growth, DU-145: 10 µM, MTT screening (Figure S1); for IC50: Homo sapiens, DU-145, MTT, mean ± SD of three experiments, read-out: IC50 DU-145 (Prostate)
Description: (§1) The cell lines were purchased from the American Type Culture Collection (ATCC). The four tumor cell lines used were as follows: MDA-MB-231 (triple-negative breast cancer), HTB-54 (lung cancer), DU-145 (prostate cancer), and HCT-116 (colon cancer), and the non-tumoral cell line 185-B5 (mammary tissue) were grown in Roswell Park Memorial Institute (RPMI) 1640 medium culture (Thermo Scientific, USA), supplemented with 10% fetal bovine serum (FBS) (Thermo Scientific, USA) and 1% of antibiotics (10,000 units/mL penicillin and 10 mg/mL streptomycin (Thermo Scientific, USA)). Cells were preserved in tissue culture flasks at 37 °C and 5% CO2. The culture medium was replaced every two to three days.
(§2) Cell viability was determined using the MTT colorimetric assay. A total of 10,000 cells were seeded in each well in a 96-well plate for 24 h. Then, cells were incubated with the corresponding concentration of each tested compound and with DMSO (1%) as control for 48 h. Each compound was dissolved in DMSO at a stock concentration of 0.01 M. Firstly, each compound was tested at 2 concentrations (10 µM and 50 µM) in four human tumoral cell lines MDA-MB-231, HTB-54, DU-145, and HCT-116. Serial dilutions from stock concentration with culture medium were prepared. […] The cell viability was determined by the addition of 20 µL of MTT and its incubation for 2.5 h. Later, the culture medium was removed, and 50 µL of DMSO was added to dissolve formazan crystals. The absorbance was measured at 550 nm. Inhibitory concentration 50 (IC50) and selectivity index (SI) were calculated. Three different experiments were performed independently.
(§3) Cell viability results are expressed as the mean ± standard deviation (SD), and experiments were independently performed thrice in triplicates. IC50 values were determined using a non-linear curve regression analysis calculated by OriginPro 9.0 software.

HTB-54 = experiment: MTT cell viability assay, HTB-54; format: cell-based, human; conditions: 48 h; for percentage of cell growth, HTB-54: 10 µM, MTT screening (Figure S1); for IC50: Homo sapiens, HTB-54, MTT, mean ± SD of three experiments, read-out: IC50 HTB-54 (Lung)
Description: as §1, §2, §3

MDA-MB-231 = experiment: MTT cell viability assay, MDA-MB-231; format: cell-based, human; conditions: for percentage of cell growth, MDA-MB-231: 10 µM, MTT screening (Figure S1); for percentage of cell growth, MDA-MB-231 / IC50: 48 h; for IC50: Homo sapiens, MDA-MB-231, MTT, mean ± SD of three experiments, read-out: IC50 MDA-MB-231 (Breast); for Selectivity index (SI): IC50 184-B5/IC50 MDA-MB-231
Description: as §1, §2, §3

184-B5 = experiment: MTT cell viability assay, non-malignant 184-B5; format: cell-based; conditions: Homo sapiens, 48 h, mean ± SD of three experiments, read-out: IC50 184-B5 (Breast, non-tumoral)
Description: as §1, §2, §3

HCT-116 = experiment: MTT cell viability assay, HCT-116; format: cell-based, human; conditions: 10 µM, 48 h, MTT screening (Figure S1)
Description: as §1, §2, §3

[1] = test system: MDA-MB-231, HTB-54, DU-145, and HCT-116; experiment: MTT initial screening in four tumor cell lines; format: cell-based; conditions: Homo sapiens, in at least three cell lines, 48 h, read-out: cell growth inhibition
Description: as §2

[2] = test system: panel of 60 cancer cell lines; experiment: NCI60 One-Dose screening; format: cell-based; conditions: 1·10^−5 M, 48 h, mean of 60 cancer cell lines
Description: (§4) The ten compounds with the highest cell growth inhibition activity were submitted to the Developmental Therapeutics Program (DTP) of the National Cancer Institute (NCI). The assay consists of the evaluation of the cytotoxicity by a One-Dose screening at 10^−5 M against a panel of 60 cancer cell lines of different tumors (leukemia, lung, central nervous system (CNS), melanoma, ovarian, renal, prostate, and breast cancer cell lines). […] A range of 5000–40,000 cells/well were seeded and cultured in RPMI 1640 containing 5% of FBS and 2 mM L-glutamine and were inoculated into 96-well microtiter plates in 100 µL. The microtiter plates are incubated at 37 °C and 5% humidified CO2 for 24 h prior to the addition of experimental drugs. After that, an experimental drug was added, and the microtiter was incubated for 48 h.

[3] = test system: panel of 60 cancer cell lines; experiment: NCI60 Five-Dose assay; format: cell-based; conditions: Five-Dose assay 0.01–100 µM, 48 h, 60 cell line panel
Description: as §4

SMILES	percentage of cell growth, DU-145 (DU-145) [%]	IC50 (DU-145) [µM]	percentage of cell growth, HTB-54 (HTB-54) [%]	IC50 (HTB-54) [µM]	percentage of cell growth, MDA-MB-231 (MDA-MB-231) [%]	IC50 (MDA-MB-231) [µM]	Selectivity index (SI) (MDA-MB-231)	IC50 (184-B5) [µM]	percentage of cell growth, HCT-116 (HCT-116) [%]	inhibition at 10 µM [1] [%]	mean value of cell growth, One-Dose assay [2] [%]	GI50 [3] [µM]	melting point [°C]
CC(=O)Oc1ccccc1C(=O)[Se]C(=NC1CCCCC1)NC1CCCCC1 [Compound 1]	-96.27	5.17 ± 0.32	-52.60	8.31 ± 1.01	39.10	8.56 ± 0.1	1.84	15.8 ± 1.33	94.15	> 50	−68.50	< 2	96 to 97
O=C(/C=C/c1ccccc1)[Se]C(=NC1CCCCC1)NC1CCCCC1 [Compound 2]	118.17		74.82		-19.52				120.40				156 to 158
CC(C)N=C(NC(C)C)[Se]C(=O)c1ccccc1 [Compound 3]	149.27		109.68		129.19				119.69				163 to 165
CC(C)N=C(NC(C)C)[Se]C(=O)Cc1cccs1 [Compound 5]	143.58		92.05		115.35				139.96				108 to 110
CC(C)N=C(NC(C)C)[Se]C(=O)c1cccs1 [Compound 6]	124.09		111.26		124.62				122.83				120 to 122
CC(C)N=C(NC(C)C)[Se]C(=O)c1ccc2c(c1)OCO2 [Compound 7]	131.68		108.33		119.84				105.51				138 to 140
O=C(NC(=[Se])NC1CCCCC1)c1ccccc1 [Compound 8]	-90.24	8.83 ± 0.16	-18.34	14.6 ± 1.11	15.90	17.4 ± 5.09	1.55	27 ± 5.2	104.00	> 50			71 to 73
CC(=O)Oc1ccccc1C(=O)NC(=[Se])NC1CCCCC1 [Compound 9]	-44.19	8.76 ± 2.13	-7.60	29.8 ± 22.5	1.88	10.2 ± 0.29	1.11	11.4 ± 18	117.25	> 50			79 to 81
O=C(NC(=[Se])NC1CCCCC1)c1cccs1 [Compound 10]	-82.64	5.18 ± 0.19	-25.90	10.1 ± 4.88	107.48	10.1 ± 0.25	4.83	49 ± 39.2	122.54	> 50			64 to 66
O=C(/C=C/c1ccccc1)NC(=[Se])NC1CCCCC1 [Compound 11]	50.53		57.39		71.20				103.12				140 to 142
